From publication PMC3252867, “Marilones A–C, phthalides from the sponge-derived fungus Stachylidium sp” (Beilstein Journal of Organic Chemistry, 2011) come the findings set out here.

Some test systems named below: MCF7; NCI-H460; SF268.
Common to all, as to test: cells
What all share (set-up): antiproliferative activity in human cancer cell lines, growth inhibition corrected for starting population (GI50)
Common to all, as to conditions: Homo sapiens

By GI50 is commonly meant the concentration at which growth is held to half of that of the control.

Read-outs that look alike come from different tables or passages of the source.

For the molecule `COc1cc([C@@H]2c3cc4c(cc3[C@@H](O[C@@H]3O[C@@H]5CO[C@@H](C)O[C@H]5[C@H](O)[C@H]3O)[C@H]3COC(=O)[C@H]23)OCO4)cc(OC)c1O` [Etoposide], the GI50 with MCF7 (MCF7, read-out: GI50 Etoposide) came to 22.8 µM; in the assay on NCI-H460 (NCI-H460, read-out: GI50 Etoposide), 0.4 µM; in the assay on SF268 (SF-268, read-out: GI50 Etoposide), 7.7 µM.

For `COc1c(C)c(OC/C=C(\C)CCC=C(C)C)cc2c1C(=O)O[C@H]2C` (racemic) [compound 1, Marilone A], the GI50 in the assay with MCF7 (MCF7, read-out: GI50 (1)) is 28.8 µM; with NCI-H460 (NCI-H460, read-out: GI50 (1)), 42.9 µM; with SF268 (SF-268, read-out: GI50 (1)) it was 38.4 µM.

Regarding `COc1c(C)c(OC/C=C(\C)CCC=C(C)C)cc2c1COC2=O` [compound 3, Marilone C], the concentration for 50% growth inhibition (GI50) in the assay with MCF7 (MCF7, read-out: GI50 (3)) came out at 20 µM; with NCI-H460 (NCI-H460, read-out: GI50 (3)), 31 µM; in the assay on SF268 (SF-268, read-out: GI50 (3)), 28.9 µM.
